Experimental data: paper PMC8102066 (eLife, 2021)
“And” between values parts separate entries of the source, which are not always exact repeats. Equal values may be shown once.

What was measured:
[1] = target: mGluR2-3xTM4 (Rattus norvegicus, UniProt P31421, A677S/A681F/A685G); assay: Calcium imaging (G protein chimera, GCaMP6f) in HEK 293 T cells; settings: for Calcium response amplitude: normalized to 1 mM glutamate, replicates
[2] = target: T1, mGluR2-I779A (Rattus norvegicus, UniProt P31421, I779A); assay: Calcium imaging in HEK 293 T cells; format: cell-based; settings: for Calcium response amplitude: mGluR2-I779A
T1 construct: we performed calcium imaging experiments with mutations in the full-length mGluR2 background; expressed in transfected cells; host or cells: HEK 293 T
T1 sequence (P31421 19-872 I779A): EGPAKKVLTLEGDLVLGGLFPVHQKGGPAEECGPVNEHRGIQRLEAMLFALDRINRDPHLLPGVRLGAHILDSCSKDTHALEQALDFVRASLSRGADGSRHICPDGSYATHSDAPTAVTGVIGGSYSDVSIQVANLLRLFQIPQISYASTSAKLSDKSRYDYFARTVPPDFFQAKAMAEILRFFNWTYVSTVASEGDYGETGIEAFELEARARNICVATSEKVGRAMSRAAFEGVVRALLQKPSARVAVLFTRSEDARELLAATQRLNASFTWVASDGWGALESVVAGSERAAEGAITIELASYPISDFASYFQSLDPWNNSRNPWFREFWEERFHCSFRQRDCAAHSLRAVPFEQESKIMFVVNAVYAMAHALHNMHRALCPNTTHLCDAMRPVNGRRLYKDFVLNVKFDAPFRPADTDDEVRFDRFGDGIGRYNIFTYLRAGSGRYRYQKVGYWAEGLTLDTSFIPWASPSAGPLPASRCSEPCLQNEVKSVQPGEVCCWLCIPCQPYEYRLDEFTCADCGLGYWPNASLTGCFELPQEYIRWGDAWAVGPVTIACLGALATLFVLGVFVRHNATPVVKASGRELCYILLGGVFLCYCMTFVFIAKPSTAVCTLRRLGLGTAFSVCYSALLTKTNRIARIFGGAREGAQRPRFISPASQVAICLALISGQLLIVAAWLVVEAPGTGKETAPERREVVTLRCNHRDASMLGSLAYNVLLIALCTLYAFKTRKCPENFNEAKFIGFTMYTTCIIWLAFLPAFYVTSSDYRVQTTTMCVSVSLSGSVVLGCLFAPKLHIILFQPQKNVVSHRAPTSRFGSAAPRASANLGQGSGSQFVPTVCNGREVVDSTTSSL
Method: Approximately 30 ROIs were analyzed per movie.

[3] = target: mGluR2 (Rattus norvegicus, UniProt P31421); assay: Calcium imaging (G protein chimera, GCaMP6f) in HEK 293 T cells
mGluR2 (Rattus norvegicus, UniProt P31421), sequence (P31421 19-872): as the sequence (P31421 19-872 I779A) above, with A761I counted along it

[4] = target: T2, mGluR2-C121A (Rattus norvegicus, UniProt P31421, C121A); assay: SiMPull subunit counting in the presence of ligands; settings: SNAP-mGluR2-C121A in presence of the ligand; single replicates per experiment day
T2 construct: expressed in transfected cells; host or cells: HEK 293 T (detergent lysate, pulled down by anti-HA antibody)
T2 sequence (P31421 19-872 C121A): as the sequence (P31421 19-872 I779A) above, with C103A, A761I counted along it

[5] = target: T3, mGluR2-C121A-3xTM4-I779A (Rattus norvegicus, UniProt P31421, A677S/A681F/A685G/C121A/I779A); assay: as above; settings: SNAP-mGluR2-C121A-3xTM4-I779A in presence of the ligand; single replicates per experiment day
T3 construct: expressed in transfected cells; host or cells: HEK 293 T (detergent lysate, pulled down by anti-HA antibody)
T3 sequence (P31421 19-872 C121A/A677S/A681F/A685G/I779A): as the sequence (P31421 19-872 I779A) above, with C103A, A659S, A663F, A667G counted along it

[6] = target: T4, mGluR2-C121A-I779A (Rattus norvegicus, UniProt P31421, C121A/I779A); assay: as above; settings: for % Dimerization: SNAP-mGluR2-C121A-I779A in presence of the ligand, single replicates per experiment day
T4 construct: expressed in transfected cells; host or cells: HEK 293 T (detergent lysate, pulled down by anti-HA antibody)
T4 sequence (P31421 19-872 C121A/I779A): as the sequence (P31421 19-872 I779A) above, with C103A counted along it

[7] = test system: mGluR2-TMD-3xTM4; assay: as above; design: species or system rat; settings: for % Dimerization: SNAP-mGluR2-TMD-3xTM4 in presence of the ligand, single replicates per experiment day
[8] = target: mGluR2-TMD (Rattus norvegicus, UniProt P31421); assay: as above; settings: for % Dimerization: SNAP-mGluR2-TMD in presence of the ligand, single replicates per experiment day; for effect of ligand on dimerization (SiMPull): saturating concentration
mGluR2-TMD, sequence (P31421 558-821 limits assumed): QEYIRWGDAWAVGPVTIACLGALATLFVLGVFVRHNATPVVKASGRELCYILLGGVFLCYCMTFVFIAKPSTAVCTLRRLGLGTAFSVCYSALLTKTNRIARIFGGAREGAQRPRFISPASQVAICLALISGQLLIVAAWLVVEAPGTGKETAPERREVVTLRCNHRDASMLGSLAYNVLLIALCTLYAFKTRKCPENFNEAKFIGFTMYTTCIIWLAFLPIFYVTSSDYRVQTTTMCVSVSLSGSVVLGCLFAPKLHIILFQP

[9] = test system: mGluR2-TMD-3xTM4-I779A; assay: as above; design: species or system rat; settings: for % Dimerization: SNAP-mGluR2-TMD-3xTM4-I779A in presence of the ligand, single replicates per experiment day; for effect of ligand on dimerization (SiMPull): saturating concentration
[10] = target: T5, mGluR2-C121A-3xTM4 (Rattus norvegicus, UniProt P31421, A677S/A681F/A685G/C121A); assay: as above; settings: for % Dimerization: SNAP-mGluR2-C121A-3xTM4 in presence of the ligand, single replicates per experiment day
T5 construct: expressed in transfected cells; host or cells: HEK 293 T (detergent lysate, pulled down by anti-HA antibody)
T5 sequence (P31421 19-872 C121A/A677S/A681F/A685G): as the sequence (P31421 19-872 I779A) above, with C103A, A659S, A663F, A667G, A761I counted along it

[11] = test system: mGluR2-TMD-I779A; assay: as above; design: species or system rat; settings: for % Dimerization: SNAP-mGluR2-TMD-I779A in presence of the ligand, single replicates per experiment day
[12] = target: mGluR3 (Rattus norvegicus, UniProt P31422); assay: Calcium imaging (G protein chimera, GCaMP6f) in HEK 293 T cells
mGluR3 (Rattus norvegicus, UniProt P31422), sequence (P31422 23-879): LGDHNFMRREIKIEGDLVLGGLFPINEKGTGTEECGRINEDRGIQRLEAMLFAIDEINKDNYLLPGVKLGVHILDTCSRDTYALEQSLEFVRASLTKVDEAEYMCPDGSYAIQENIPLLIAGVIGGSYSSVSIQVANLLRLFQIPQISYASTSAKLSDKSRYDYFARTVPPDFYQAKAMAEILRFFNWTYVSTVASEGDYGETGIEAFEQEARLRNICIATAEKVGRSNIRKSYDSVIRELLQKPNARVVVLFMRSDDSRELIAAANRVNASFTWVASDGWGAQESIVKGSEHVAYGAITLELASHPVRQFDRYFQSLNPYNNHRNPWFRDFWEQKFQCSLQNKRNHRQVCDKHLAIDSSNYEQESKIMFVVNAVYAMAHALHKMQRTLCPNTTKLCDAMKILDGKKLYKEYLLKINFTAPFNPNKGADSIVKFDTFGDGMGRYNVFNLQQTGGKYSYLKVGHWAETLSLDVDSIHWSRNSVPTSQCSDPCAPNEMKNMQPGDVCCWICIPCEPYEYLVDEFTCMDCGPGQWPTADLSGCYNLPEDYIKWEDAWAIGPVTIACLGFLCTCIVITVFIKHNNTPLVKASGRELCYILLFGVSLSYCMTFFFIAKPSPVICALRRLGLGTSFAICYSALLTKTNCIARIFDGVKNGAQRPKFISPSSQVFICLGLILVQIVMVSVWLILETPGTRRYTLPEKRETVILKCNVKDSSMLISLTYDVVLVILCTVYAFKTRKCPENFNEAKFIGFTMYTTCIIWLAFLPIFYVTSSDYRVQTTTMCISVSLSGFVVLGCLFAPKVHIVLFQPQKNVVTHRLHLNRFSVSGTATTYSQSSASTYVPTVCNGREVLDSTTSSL

[13] = test system: group II mGluR; design: method as in Hemstapat et al., 2007; settings: ref Hemstapat et al., 2007; cited from earlier work
[14] = target: mGluR3 (Rattus norvegicus, UniProt P31422, INS669ASEIGTGFPFDPHYVEVLGERMHYVDVGPRDGTPVLFLHGNPTSSYVWRNIIPHVAPTHRCIAPDLIGMGKSDKPDLGYFFDDHVRFMDAFIEALGLEEVVLVIHDWGSALGFHWAKRNPERVKGIAFMEFIRPIPTWDEWPEFARETFQAFRTTDVGRKLIIDQNVFIEGTLPMGVVRPLTEVEMDHYREPFLNPVDREPLWRFPNELPIAGEPANIVALVEEYMDWLHQSPVPKLLFWGTPGVLIPPAEAARLAKSLPNCKAVDIGPGLNLLQEDNPDLIGSEIARWLSTLEISGLE); assay: Inter-TMD FRET sensor (HaloTag in ICL2), live cells;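 further: receptor HaloTag labeled with JF549 donor and JF646 acceptor (1:3), FRET taken as acceptor over summed donor plus acceptor fluorescence intensity, imaged at room temperature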
UniProt P31422, sequence (P31422 with tags, fused parts or gaps with the stated changes): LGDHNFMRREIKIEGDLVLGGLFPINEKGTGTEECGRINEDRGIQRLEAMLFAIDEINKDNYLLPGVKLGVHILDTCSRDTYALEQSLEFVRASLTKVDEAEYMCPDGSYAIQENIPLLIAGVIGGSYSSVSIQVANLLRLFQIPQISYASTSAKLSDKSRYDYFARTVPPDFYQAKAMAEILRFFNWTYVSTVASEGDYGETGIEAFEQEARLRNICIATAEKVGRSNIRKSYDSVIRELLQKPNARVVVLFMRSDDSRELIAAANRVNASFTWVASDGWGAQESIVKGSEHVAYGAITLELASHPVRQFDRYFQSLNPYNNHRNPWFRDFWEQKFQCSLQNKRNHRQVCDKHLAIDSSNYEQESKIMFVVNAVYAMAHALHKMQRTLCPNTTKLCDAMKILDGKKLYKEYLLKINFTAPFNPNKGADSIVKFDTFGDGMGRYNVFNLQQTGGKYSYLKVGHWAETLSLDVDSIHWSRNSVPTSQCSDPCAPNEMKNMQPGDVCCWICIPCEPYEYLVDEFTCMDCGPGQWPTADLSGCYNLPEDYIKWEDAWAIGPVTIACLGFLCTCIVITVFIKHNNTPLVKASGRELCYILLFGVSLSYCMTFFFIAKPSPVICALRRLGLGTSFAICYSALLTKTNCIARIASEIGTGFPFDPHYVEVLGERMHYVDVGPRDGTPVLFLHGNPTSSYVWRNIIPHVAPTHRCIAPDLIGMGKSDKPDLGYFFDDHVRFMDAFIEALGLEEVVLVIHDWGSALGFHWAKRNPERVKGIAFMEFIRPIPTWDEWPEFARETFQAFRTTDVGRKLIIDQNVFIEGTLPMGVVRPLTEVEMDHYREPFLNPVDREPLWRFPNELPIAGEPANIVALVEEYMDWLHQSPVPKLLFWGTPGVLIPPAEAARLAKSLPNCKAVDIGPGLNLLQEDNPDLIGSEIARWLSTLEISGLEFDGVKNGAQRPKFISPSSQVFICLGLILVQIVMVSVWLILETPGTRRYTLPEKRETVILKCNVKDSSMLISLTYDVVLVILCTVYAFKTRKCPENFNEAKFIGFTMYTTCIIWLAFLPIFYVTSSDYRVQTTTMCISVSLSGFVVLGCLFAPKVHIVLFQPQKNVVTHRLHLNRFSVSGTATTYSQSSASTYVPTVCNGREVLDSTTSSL

[15] = target: mGluR2 (Rattus norvegicus, UniProt P31421, INS660ASEIGTGFPFDPHYVEVLGERMHYVDVGPRDGTPVLFLHGNPTSSYVWRNIIPHVAPTHRCIAPDLIGMGKSDKPDLGYFFDDHVRFMDAFIEALGLEEVVLVIHDWGSALGFHWAKRNPERVKGIAFMEFIRPIPTWDEWPEFARETFQAFRTTDVGRKLIIDQNVFIEGTLPMGVVRPLTEVEMDHYREPFLNPVDREPLWRFPNELPIAGEPANIVALVEEYMDWLHQSPVPKLLFWGTPGVLIPPAEAARLAKSLPNCKAVDIGPGLNLLQEDNPDLIGSEIARWLSTLEISGLE); assay: as above
UniProt P31421, sequence (P31421 with tags, fused parts or gaps with the stated changes): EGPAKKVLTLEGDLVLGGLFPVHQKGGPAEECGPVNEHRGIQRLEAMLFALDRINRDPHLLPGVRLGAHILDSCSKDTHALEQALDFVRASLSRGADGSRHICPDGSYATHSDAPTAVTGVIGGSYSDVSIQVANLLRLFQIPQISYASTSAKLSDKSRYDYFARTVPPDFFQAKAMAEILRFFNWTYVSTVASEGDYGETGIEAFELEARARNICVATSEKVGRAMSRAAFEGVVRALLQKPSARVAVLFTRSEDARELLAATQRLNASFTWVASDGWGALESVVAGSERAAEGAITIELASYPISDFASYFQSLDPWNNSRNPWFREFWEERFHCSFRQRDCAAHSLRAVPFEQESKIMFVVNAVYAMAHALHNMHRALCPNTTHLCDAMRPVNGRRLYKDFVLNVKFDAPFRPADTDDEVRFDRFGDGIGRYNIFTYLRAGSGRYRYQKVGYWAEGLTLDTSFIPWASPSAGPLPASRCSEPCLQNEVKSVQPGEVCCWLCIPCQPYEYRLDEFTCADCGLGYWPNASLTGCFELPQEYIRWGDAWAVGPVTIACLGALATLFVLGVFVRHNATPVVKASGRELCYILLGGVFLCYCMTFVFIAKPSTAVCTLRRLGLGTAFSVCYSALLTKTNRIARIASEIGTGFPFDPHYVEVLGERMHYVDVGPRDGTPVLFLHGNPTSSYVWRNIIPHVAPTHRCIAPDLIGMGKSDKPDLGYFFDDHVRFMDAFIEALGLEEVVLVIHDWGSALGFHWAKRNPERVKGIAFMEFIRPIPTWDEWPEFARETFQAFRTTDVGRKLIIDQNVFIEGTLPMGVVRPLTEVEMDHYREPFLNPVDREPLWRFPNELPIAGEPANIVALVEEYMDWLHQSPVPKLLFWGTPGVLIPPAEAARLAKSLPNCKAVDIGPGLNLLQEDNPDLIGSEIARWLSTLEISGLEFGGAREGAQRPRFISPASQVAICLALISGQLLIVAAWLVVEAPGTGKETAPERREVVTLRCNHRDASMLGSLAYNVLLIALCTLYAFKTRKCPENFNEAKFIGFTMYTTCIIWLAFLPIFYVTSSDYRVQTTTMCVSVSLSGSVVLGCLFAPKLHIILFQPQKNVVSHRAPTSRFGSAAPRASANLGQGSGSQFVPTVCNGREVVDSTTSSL

[16] = test system: SNAP-tagged mGluR2 and mGluR3 constructs; assay: Surface expression measurements; format: cell-based, rat; settings: construct; single measurements
From the text: ImageJ was used to analyze fluorescence intensity of cell clusters. […] Fluorescence intensity values for each construct were normalized to wild-type values for comparison.

mGluR2-3xTM4, sequence (P31421 19-872 A677S/A681F/A685G): as the sequence (P31421 19-872 I779A) above, with A659S, A663F, A667G, A761I counted along it

COc1ccccc1Oc1ccc(N(Cc2cccnc2)S(=O)(=O)CC(F)(F)F)cc1 [LY487379, N-(4-(2-methoxyphenoxy)phenyl)-N-(2,2,2-trifluoroethylsulfonyl)pyrid-3-ylmethylamine]
EC50 [1]: 270 ± 60 nM | Calcium response amplitude ([1]; LY487379 1 nM): 0.00 | Calcium response amplitude ([1]; LY487379 10 nM): 0.14 and 0.16 and 0.09 and 0.00 | Calcium response amplitude ([1]; LY487379 100 nM): 0.27 and 0.19 and 0.25 | Calcium response amplitude ([1]; LY487379 1 uM): 0.80 and 0.82 (2×) and 0.66 | Calcium response amplitude ([1]; LY487379 3 uM): 0.86 and 0.89 | Calcium response amplitude ([1]; LY487379 10 uM): 0.94 and 0.93 and 0.86 | Calcium response amplitude ([1]; LY487379 100 uM): 0.97 and 0.91 and 0.99 | Calcium response amplitude ([2]; LY487379 100 nM): 0.00 | Calcium response amplitude ([2]; LY487379 3 uM): 0.21 and 0.14 | Calcium response amplitude ([2]; LY487379 10 uM): 0.34 and 0.27 | Calcium response amplitude ([2]; LY487379 100 uM): 0.49 and 0.44 | shift of LY48 EC50 compared to mGluR2 ([2]; calcium imaging, rightward): 12 fold | EC50 ([2]; read-out: LY48 EC50, calcium imaging): 5.46 ± 0.01 µM | EC50 [3]: 450 ± 100 nM | Calcium response amplitude ([3]; LY487379 1 nM, mGluR2): 0.00 | Calcium response amplitude ([3]; LY487379 1 nM, normalized to 1 mM glutamate, replicates): 0.00 | Calcium response amplitude ([3]; LY487379 10 nM, mGluR2): 0.00 | Calcium response amplitude ([3]; LY487379 10 nM, normalized to 1 mM glutamate, replicates): 0.00 | Calcium response amplitude ([3]; LY487379 100 nM, normalized to 1 mM glutamate, replicates): 0.09 and 0.00 and 0.07 and 0.33 | Calcium response amplitude ([3]; LY487379 1 uM, mGluR2): 0.53 and 0.49 and 0.68 and 0.50 and 0.51 and 0.46 | Calcium response amplitude ([3]; LY487379 1 uM, normalized to 1 mM glutamate, replicates): 0.53 and 0.49 and 0.68 and 0.50 and 0.51 and 0.46 | Calcium response amplitude ([3]; LY487379 3 uM, mGluR2): 0.70 and 0.58 and 0.72 | Calcium response amplitude ([3]; LY487379 3 uM, normalized to 1 mM glutamate, replicates): 0.70 and 0.58 and 0.72 | Calcium response amplitude ([3]; LY487379 10 uM, mGluR2): 0.61 and 0.56 and 0.77 and 0.92 and 0.74 and 0.69 | Calcium response amplitude ([3]; LY487379 10 uM, normalized to 1 mM glutamate, replicates): 0.61 and 0.56 and 0.77 and 0.92 and 0.74 and 0.69 | Calcium response amplitude ([3]; LY487379 100 uM, mGluR2): 0.76 and 0.82 and 0.73 and 0.74 | Calcium response amplitude ([3]; LY487379 100 uM, normalized to 1 mM glutamate, replicates): 0.76 and 0.82 and 0.73 and 0.74

Cc1c(C(N)=O)nc2n1C[C@@H](COc1ccc(C(C)(C)C)cc1)O2 [TASP]
% Dimerization [4]: 76.12% and 87.00% and 99.52% and 87.93% and 80.12% and 79.00% | % Dimerization [5]: 50.00% and 40.35% and 44.84% and 41.46% and 44.90% and 44.88% | % Dimerization [6]: 59.23% and 63.47% and 55.82% and 58.53% and 66.92% and 63.85% | % Dimerization [7]: 69.61% and 70.23% and 79.80% and 76.57% and 71.76% and 76.09% | effect of ligand on dimerization (SiMPull) ([7]; saturating concentration): clear increase in dimerization | % Dimerization [8]: 70.24% and 67.71% and 72.49% and 72.50% and 70.98% and 74.03% | effect of ligand on dimerization (SiMPull) [8]: no sensitivity | % Dimerization [9]: 47.45% and 39.66% and 50.29% and 36.75% and 47.53% and 38.72% | effect of ligand on dimerization (SiMPull) [9]: prevented any PAM- or NAM-induced dimerization shifts | % Dimerization [10]: 78.37% and 85.60% and 87.01% and 85.50% and 86.03% and 88.59% | effect of ligand on dimerization (SiMPull) ([10]; saturating concentration): significantly increases dimerization | % Dimerization [11]: 52.39% and 61.74% and 61.54% and 62.46% and 33.04% and 41.52%

MNI 137
block of functional (calcium) glutamate response ([12]; MNI 137 10 μM): full block of functional responses | Maximum % Inhibition ([12]; mGluR3, Experiment: Function): 100% | % Dimerization [4]: 71.52% and 91.33% and 86.77% and 100.30% and 93.63% and 83.88% | IC50 [13]: ~10 nM | % Dimerization [5]: 49.83% and 50.71% and 40.36% and 45.67% and 37.52% and 54.71% | % Dimerization [6]: 83.51% and 83.55% and 76.24% and 73.81% and 83.57% and 74.66% | effect of ligand on dimerization (SiMPull) ([6]; saturating concentration): significantly increases dimerization | % Dimerization [7]: 39.03% and 46.76% and 55.63% and 64.38% and 47.94% and 59.01% | % Dimerization [8]: 80.57% and 69.39% and 68.4% and 70.29% and 73.87% and 66.8% and 70.292% and 73.871% and 80.566% and 69.3893% | effect of ligand on dimerization (SiMPull) [8]: no sensitivity | % Dimerization [9]: 46.88% and 52.99% and 50.80% and 55.60% and 41.02% and 44.69% | effect of ligand on dimerization (SiMPull) [9]: prevented any PAM- or NAM-induced dimerization shifts | block of glutamate-induced FRET responses ([14]; MNI 137 10 μM): 42.9 ± 7.4% | block of glutamate-induced FRET responses ([14]; MNI 137 50 μM, n = 3): 44.9 ± 8.3% | Basal FRET Response (%) ([14]; mGluR3-Halo-ICL2, absence of glutamate, individual measurements): 13.3% and 15.2% and 5% and 5.6% and 0% and 19.5% and 7.8% and 52% | block of glutamate-induced FRET responses ([15]; MNI 137 10 μM): 32.0 ± 4.5% | Maximum % Inhibition ([15]; mGluR2, Experiment: FRET): 29.8% and 42.4% and 23.8% | % Dimerization [10]: 70.00% and 81.03% and 62.91% and 67.92% and 62.85% and 68.46% | block of functional (calcium) glutamate response ([3]; MNI 137 10 μM): full block of functional responses | Maximum % Inhibition ([3]; mGluR2, Experiment: Function): 100% | % Dimerization [11]: 60.52% and 74.21% and 73.33% and 77.72% and 88.90% and 81.43% | effect of ligand on dimerization (SiMPull) ([11]; saturating concentration): clear increase

SNAP-mGluR2-P778A
Surface Expression [16]: 0.58 and 0.76 and 0.68 and 0.87 and 0.59 and 1.10 and 0.91
